In patent EP4667500A1, “FRUCTOOLIGOSACCHARIDE DERIVATIVES AND USES THEREOF” (Biopract GmbH, priority 2024, dated 2025):

Test system: pancreatic enzymes
Assay: Stability in simulated small intestine (pancreatic hydrolysis), released substituent acid detected by HPLC
Assay type: in vitro ADME
Conditions: incubation in simulated intestinal environment
Source text: The compounds analysed are esters between primary or secondary alcohols and fatty acids. In the stomach, the influence of the pH value and its chemical effect is decisive. The stability of the molecules there depends mainly on the nature of the bond. This is the same for all the molecules analysed. […] In contrast, hydrolysis in the small intestine is enzymatically catalysed and the stability can vary greatly between the molecules studied. The work on stability was therefore focussed on pancreatic hydrolysis.
The synthesised ester compounds consisted of a fructooligosaccharide scaffold of the inulin or levan type, to which substituent molecules were bound via an ester bond. Organic acids, predominantly butyric acid, and also propionic acid, acetic acid, succinic acid and benzoic acid served as substituents. The study consisted of incubating the substances in a simulated intestinal environment, followed by the detection of the substituent acid present and, if applicable, released by means of HPLC. Tributyrin was used as a positive control according to the literature.

## CCCC(=O)OCC(COC(=O)CCC)OC(=O)CCC [Tributyrin]
  stability under the test conditions of the simulated small intestine: largely hydrolysed
